Among the data in BindingDB's records for doi:10.1016/j.bmcl.2008.10.104 (Taisho Pharmaceutical, 2008) are IC50 values, retold here.

The IC50 is the concentration at which inhibition is half-maximal.

Residues, ends and D or L forms follow the SMILES beside them.

Test [1] has as its target Sodium- and chloride-dependent glycine transporter 1 (Rattus norvegicus). In words: Inhibition of [3H]glycine uptake at rat glycine transporter 1 expressed in african green monkey COS7 cells.
Test [2] deals with Sodium- and chloride-dependent glycine transporter 2 (Rattus norvegicus) (UniProt P58295). In words: Inhibition of [3H]glycine uptake at rat glycine transporter 2 expressed in african green monkey COS7 cells.
Chain of Sodium- and chloride-dependent glycine transporter 2 (Rattus norvegicus) (P58295 whole entry, looked up): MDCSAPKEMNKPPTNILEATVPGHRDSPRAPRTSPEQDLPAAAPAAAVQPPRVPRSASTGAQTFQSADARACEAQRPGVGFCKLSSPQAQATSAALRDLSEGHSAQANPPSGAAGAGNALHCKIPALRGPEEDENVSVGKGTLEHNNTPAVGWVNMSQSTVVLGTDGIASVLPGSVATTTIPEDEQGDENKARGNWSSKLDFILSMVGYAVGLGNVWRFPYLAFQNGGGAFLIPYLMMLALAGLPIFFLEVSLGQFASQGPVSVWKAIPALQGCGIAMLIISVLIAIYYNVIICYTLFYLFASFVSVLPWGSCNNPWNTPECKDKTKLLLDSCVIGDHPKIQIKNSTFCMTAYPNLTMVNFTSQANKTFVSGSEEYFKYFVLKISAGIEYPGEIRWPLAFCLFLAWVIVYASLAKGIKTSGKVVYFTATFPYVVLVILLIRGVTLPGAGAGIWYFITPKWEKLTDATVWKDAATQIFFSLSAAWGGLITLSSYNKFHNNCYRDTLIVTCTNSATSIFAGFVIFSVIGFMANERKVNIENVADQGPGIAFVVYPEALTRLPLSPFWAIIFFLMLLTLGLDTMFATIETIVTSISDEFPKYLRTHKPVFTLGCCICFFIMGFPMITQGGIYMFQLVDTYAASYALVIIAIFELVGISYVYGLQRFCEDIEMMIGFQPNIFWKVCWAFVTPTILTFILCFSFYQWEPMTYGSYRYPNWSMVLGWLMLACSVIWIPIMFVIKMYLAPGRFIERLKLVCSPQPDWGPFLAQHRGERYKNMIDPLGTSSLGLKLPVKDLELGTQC

Consider `CC[C@H](C)[C@@H]1NC(=O)[C@H](Cc2ccccc2)NC(=O)[C@H]([C@H](C)[C@@H](C)O)NC(=O)[C@H]([C@@H](C)CC)NC1=O` [(3S,6S,9S,12S)-3-benzyl-9,12-di-sec-butyl-6-((2S,3R)-3-hydroxybutan-2-yl)-1,4,7,10-tetraazacyclododecane-2,5,8,11-tetraone], for which the IC50 in test [1] is 3 nM; in test [2], 278 nM.

As for `CC[C@H](C)[C@@H]1NC(=O)[C@H](Cc2ccccc2)NC(=O)[C@H]([C@@H](C)CC)NC(=O)[C@H]([C@@H](C)CC)NC1=O` [(3S,6S,9S,12S)-3-benzyl-6,9,12-tri-sec-butyl-1,4,7,10-tetraazacyclododecane-2,5,8,11-tetraone] (cyclo(FIII)), the IC50 in test [2] came out at 226 nM.

Take `N[C@@H](COC(c1cccc(F)c1)c1ccccc1OCc1ccccc1)C(=O)O` (stereo partly drawn) [(2S)-2-amino-3-((2-(benzyloxy)phenyl)(3-fluorophenyl)methoxy)propanoic acid]: the midpoint of inhibition in test [2], the IC50, lay at 21.1 nM.

Take `CC[C@H](C)[C@@H]1NC(=O)[C@H](C(C)C)NC(=O)[C@H](Cc2ccccc2)NC(=O)[C@H]([C@H](C)[C@@H](C)O)NC1=O` [(3S,6S,9S,12S)-3-benzyl-9-sec-butyl-6-((2S,3R)-3-hydroxybutan-2-yl)-12-isopropyl-1,4,7,10-tetraazacyclododecane-2,5,8,11-tetraone]: in test [2], the IC50 worked out at 450 nM.

With `CC(C)[C@@H]1NC(=O)[C@H](Cc2ccccc2)NC(=O)[C@H]([C@H](C)[C@@H](C)O)NC(=O)[C@H](C(C)C)NC1=O` [(3S,6S,9S,12S)-3-benzyl-6-((2S,3R)-3-hydroxybutan-2-yl)-9,12-diisopropyl-1,4,7,10-tetraazacyclododecane-2,5,8,11-tetraone], the results for the IC50 in test [1] and in test [2] were 11.1 nM and 542 nM, respectively.

For `CC[C@H](C)[C@@H]1NC(=O)[C@H](Cc2ccccc2)NC(=O)[C@H]([C@H](CS(=O)(=O)O)C(C)=O)NC(=O)[C@H]([C@@H](C)CC)NC1=O` [(S)-2-((2S,5S,8S,11S)-5-benzyl-8,11-di-sec-butyl-3,6,9,12-tetraoxo-1,4,7,10-tetraazacyclododecan-2-yl)-3-oxobutane-1-sulfonic acid], the half-maximal inhibitory concentration (IC50) in test [1] is 20.4 nM; in test [2], 2260 nM.

On to `CC[C@H](C)[C@@H]1NC(=O)[C@H](Cc2ccccc2)NC(=O)[C@H]([C@H](C)[C@@H](C)O)NC(=O)[C@H](C(C)C)NC1=O` [(3S,6S,9S,12S)-3-benzyl-12-sec-butyl-6-((2S,3R)-3-hydroxybutan-2-yl)-9-isopropyl-1,4,7,10-tetraazacyclododecane-2,5,8,11-tetraone], for which the 50% inhibitory concentration (IC50) in test [1] amounted to 10.2 nM; in test [2], 574 nM.
